These are literature values, as cited in patent US20240368000A1, “CARBON REMOVAL FROM SEAWATER AND OTHER LIQUIDS USING PHOTOACTIVE COMPOUNDS” (University of Washington, priority 2021, published 2024).

The conditions of the data set: ground (dark) state of the photoacid; value from Wimberger et al., Chem. Commun. 2022, 58(37), 5610-5613.

As for `COc1ccc2c(c1)C(C)(C)C(/C=C\c1ccccc1O)=[N+]2CCCC[S@SP3](=O)(=O)[O-]` [merocyanine photoacid], the pKa-Dark is given as 7.33.
